Experimental data from patent US9302999B2, “Substituted triazoles as herbicides” (E. I. DU PONT DE NEMOURS AND COMPANY, priority 2012, dated 2016).

Legend:
Type in all cases: in vivo
Details in all cases: Preemergence, scale 0 to 100
[1] = system: arrowleaf sida (Sida rhombifolia); assay: Test E pre-/postemergence: arrowleaf sida
Procedure, shortened: (§1)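 Greenhouse pot test, both timings. Pre: silt loam, sprayed after planting. Post: 2–18 cm plants (1–4 leaf), peat moss/vermiculite mix. Same surfactant-containing formulation for both. Read: visual % control, 0–100, day 14–21.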

[2] = system: ragweed (common ragweed, Ambrosia elation); assay: Test E pre-/postemergence: ragweed
Excerpt: (§2) Seeds of plant species selected from corn (Zea mays), soybean (Glycine max), velvetleaf (Abutilon theophrasti), lambsquarters (Chenopodium album), poinsettia, wild (wild poinsettia, Euphorbia heterophylla), pigweed, palmer (palmer pigweed, Amaranthus palmeri), waterhemp (common waterhemp, Amaranthus rudis), smartweed (ladysthumb smartweed, Polygonum persicaria), surinam grass (Brachiaria decumbens), crabgrass, large (large crabgrass, Digitaria sanguinalis), crabgrass, Brazil (Brazilian crabgrass, Digitaria horizontalis), panicum, fall (fall panicum, Panicum dichotomiflorum), foxtail, giant (giant foxtail, Setaria faberii), foxtail, green (green foxtail, Setaria viridis), goosegrass (Eleusine indica), johnsongrass (Sorghum halepense), ragweed (common ragweed, Ambrosia elation), barnyardgrass (Echinochloa crus-galli), sandbur (southern sandbur, Cenchrus echinatus), arrowleaf sida (Sida rhombifolia), ryegrass, Italian (Italian ryegrass, Lolium multiflorum), dayflower, (VA) (Virginia dayflower, Commelina virginica), field bindweed (Convolvulus arvensis), cocklebur (common cocklebur, Xanthium strumarium), morningglory (Ipomoea coccinea), nightshade (eastern black nightshade, Solanum ptycanthum), kochia (Kochia scoparia), nutsedge, yellow (yellow nutsedge, Cyperus esculentus) and beggarticks (hairy beggarticks, Bidens pilosa) were planted into a silt loam soil and treated preemergence with test chemicals formulated in a non-phytotoxic solvent mixture which included a surfactant. At the same time, plants selected from these crop and weed species were planted in pots containing a growing medium comprising spaghnum peat moss, vermiculite, wetting agent and starter nutrients and treated with postemergence applications of some of the test chemicals formulated in the same manner. Plants ranged in height from 2 to 18 cm for postemergence treatments (1- to 4-leaf stage).
(§3) Treated plants and controls were maintained in a greenhouse for 14 to 21 days, after which time all species were compared to controls and visually evaluated. Plant response ratings, summarized in Table E, are based on a scale of 0 to 100 where 0 is no effect and 100 is complete control. A dash (-) response means no test result.

[3] = system: nutsedge, yellow (yellow nutsedge, Cyperus esculentus); assay: Test E pre-/postemergence: nutsedge, yellow
Procedure, shortened: as §1

[4] = system: morningglory (Ipomoea coccinea); assay: Test E pre-/postemergence: morningglory
Excerpt: as §2, §3

[5] = system: ryegrass, Italian (Italian ryegrass, Lolium multiflorum); assay: Test E pre-/postemergence: ryegrass, Italian
Procedure, shortened: as §1

[6] = system: cocklebur (common cocklebur, Xanthium strumarium); assay: Test E pre-/postemergence: cocklebur
Excerpt: as §2, §3

[7] = system: velvetleaf (Abutilon theophrasti); assay: Test E pre-/postemergence: velvetleaf
Excerpt: as §2, §3

[8] = system: dayflower, (VA) (Virginia dayflower, Commelina virginica); assay: Test E pre-/postemergence: dayflower, (VA)
Excerpt: as §2, §3

soybean (Glycine max) = assay: Test E pre-/postemergence: soybean
Excerpt: as §2, §3

[9] = system: surinam grass (Brachiaria decumbens); assay: Test E pre-/postemergence: surinam grass
Procedure, shortened: as §1

Structure (SMILES): FC(F)(F)COc1nn(-c2ccc(C(F)(F)F)cc2)nc1Cc1ccnc(C(F)(F)F)c1 [Compound 14, 4-[[5-(2,2,2-trifluoroethoxy)-2-[4-(trifluoromethyl)phenyl]-2H-1,2,3-triazol-4-yl]methyl]-2-(trifluoromethyl)pyridine]
- Plant response rating: Arrowleaf Sida ([1]; 16 g ai/ha): 10
- Plant response rating: Arrowleaf Sida ([1]; 31 g ai/ha): 30
- Plant response rating: Arrowleaf Sida ([1]; 62 g ai/ha): 30
- Plant response rating: Arrowleaf Sida ([1]; 125 g ai/ha): 65
- Plant response rating: Arrowleaf Sida ([1]; 250 g ai/ha): 80
- Plant response rating: Ragweed ([2]; 16 g ai/ha): 0
- Plant response rating: Ragweed ([2]; 31 g ai/ha): 20
- Plant response rating: Ragweed ([2]; 62 g ai/ha): 35
- Plant response rating: Ragweed ([2]; 125 g ai/ha): 80
- Plant response rating: Ragweed ([2]; 250 g ai/ha): 90
- Plant response rating: Nutsedge, Yellow ([3]; 16 g ai/ha): 0
- Plant response rating: Nutsedge, Yellow ([3]; 31 g ai/ha): 0
- Plant response rating: Nutsedge, Yellow ([3]; 62 g ai/ha): 0
- Plant response rating: Nutsedge, Yellow ([3]; 125 g ai/ha): 0
- Plant response rating: Nutsedge, Yellow ([3]; 250 g ai/ha): 15
- Plant response rating: Morningglory ([4]; 16 g ai/ha): 0
- Plant response rating: Morningglory ([4]; 31 g ai/ha): 20
- Plant response rating: Morningglory ([4]; 62 g ai/ha): 35
- Plant response rating: Morningglory ([4]; 125 g ai/ha): 75
- Plant response rating: Morningglory ([4]; 250 g ai/ha): 75
- Plant response rating: Ryegrass, Italian ([5]; 16 g ai/ha): 0
- Plant response rating: Ryegrass, Italian ([5]; 31 g ai/ha): 40
- Plant response rating: Ryegrass, Italian ([5]; 62 g ai/ha): 85
- Plant response rating: Ryegrass, Italian ([5]; 125 g ai/ha): 95
- Plant response rating: Ryegrass, Italian ([5]; 250 g ai/ha): 100
- Plant response rating: Cocklebur ([6]; 16 g ai/ha): 0
- Plant response rating: Cocklebur ([6]; 31 g ai/ha): 0
- Plant response rating: Cocklebur ([6]; 62 g ai/ha): 0
- Plant response rating: Cocklebur ([6]; 125 g ai/ha): 50
- Plant response rating: Velvetleaf ([7]; 16 g ai/ha): 20
- Plant response rating: Velvetleaf ([7]; 31 g ai/ha): 35
- Plant response rating: Velvetleaf ([7]; 62 g ai/ha): 50
- Plant response rating: Velvetleaf ([7]; 125 g ai/ha): 80
- Plant response rating: Velvetleaf ([7]; 250 g ai/ha): 95
- Plant response rating: Dayflower, VA ([8]; 16 g ai/ha): 10
- Plant response rating: Dayflower, VA ([8]; 31 g ai/ha): 50
- Plant response rating: Dayflower, VA ([8]; 62 g ai/ha): 60
- Plant response rating: Dayflower, VA ([8]; 125 g ai/ha): 70
- Plant response rating: Dayflower, VA ([8]; 250 g ai/ha): 75
- Plant response rating: Soybean (soybean (Glycine max); 16 g ai/ha): 0
- Plant response rating: Soybean (soybean (Glycine max); 31 g ai/ha): 10
- Plant response rating: Soybean (soybean (Glycine max); 62 g ai/ha): 25
- Plant response rating: Soybean (soybean (Glycine max); 250 g ai/ha): 35
- Plant response rating: Surinam Grass ([9]; 16 g ai/ha): 5
- Plant response rating: Surinam Grass ([9]; 31 g ai/ha): 10
- Plant response rating: Surinam Grass ([9]; 62 g ai/ha): 25
- Plant response rating: Surinam Grass ([9]; 125 g ai/ha): 65
- Plant response rating: Surinam Grass ([9]; 250 g ai/ha): 100

Structure (SMILES): COc1nn(-c2ccc(C(F)(F)F)cc2)nc1Cc1ccnc(C(F)(F)F)c1 [Compound 15, 4-[[5-methoxy-2-[4-(trifluoromethyl)phenyl]-2H-1,2,3-triazol-4-yl]methyl]-2-(trifluoromethyl)pyridine]
- Plant response rating: Arrowleaf Sida ([1]; 31 g ai/ha): 30
- Plant response rating: Arrowleaf Sida ([1]; 62 g ai/ha): 40
- Plant response rating: Arrowleaf Sida ([1]; 125 g ai/ha): 50
- Plant response rating: Arrowleaf Sida ([1]; 250 g ai/ha): 60
- Plant response rating: Ragweed ([2]; 16 g ai/ha): 0
- Plant response rating: Ragweed ([2]; 31 g ai/ha): 5
- Plant response rating: Ragweed ([2]; 125 g ai/ha): 30
- Plant response rating: Ragweed ([2]; 250 g ai/ha): 60
- Plant response rating: Nutsedge, Yellow ([3]; 16 g ai/ha): 0
- Plant response rating: Nutsedge, Yellow ([3]; 31 g ai/ha): 0
- Plant response rating: Nutsedge, Yellow ([3]; 62 g ai/ha): 0
- Plant response rating: Nutsedge, Yellow ([3]; 125 g ai/ha): 0
- Plant response rating: Nutsedge, Yellow ([3]; 250 g ai/ha): 0
- Plant response rating: Morningglory ([4]; 16 g ai/ha): 10
- Plant response rating: Morningglory ([4]; 31 g ai/ha): 50
- Plant response rating: Morningglory ([4]; 62 g ai/ha): 50
- Plant response rating: Morningglory ([4]; 125 g ai/ha): 65
- Plant response rating: Morningglory ([4]; 250 g ai/ha): 65
- Plant response rating: Ryegrass, Italian ([5]; 16 g ai/ha): 20
- Plant response rating: Ryegrass, Italian ([5]; 31 g ai/ha): 75
- Plant response rating: Ryegrass, Italian ([5]; 62 g ai/ha): 80
- Plant response rating: Ryegrass, Italian ([5]; 125 g ai/ha): 100
- Plant response rating: Ryegrass, Italian ([5]; 250 g ai/ha): 100
- Plant response rating: Cocklebur ([6]; 31 g ai/ha): 0
- Plant response rating: Cocklebur ([6]; 62 g ai/ha): 0
- Plant response rating: Cocklebur ([6]; 250 g ai/ha): 20
- Plant response rating: Velvetleaf ([7]; 16 g ai/ha): 20
- Plant response rating: Velvetleaf ([7]; 31 g ai/ha): 30
- Plant response rating: Velvetleaf ([7]; 62 g ai/ha): 65
- Plant response rating: Velvetleaf ([7]; 125 g ai/ha): 65
- Plant response rating: Velvetleaf ([7]; 250 g ai/ha): 95
- Plant response rating: Dayflower, VA ([8]; 16 g ai/ha): 5
- Plant response rating: Dayflower, VA ([8]; 31 g ai/ha): 10
- Plant response rating: Dayflower, VA ([8]; 62 g ai/ha): 25
- Plant response rating: Dayflower, VA ([8]; 125 g ai/ha): 60
- Plant response rating: Dayflower, VA ([8]; 250 g ai/ha): 95
- Plant response rating: Soybean (soybean (Glycine max); 16 g ai/ha): 0
- Plant response rating: Soybean (soybean (Glycine max); 31 g ai/ha): 0
- Plant response rating: Soybean (soybean (Glycine max); 62 g ai/ha): 20
- Plant response rating: Soybean (soybean (Glycine max); 125 g ai/ha): 35
- Plant response rating: Soybean (soybean (Glycine max); 250 g ai/ha): 35
- Plant response rating: Surinam Grass ([9]; 16 g ai/ha): 5
- Plant response rating: Surinam Grass ([9]; 31 g ai/ha): 50
- Plant response rating: Surinam Grass ([9]; 62 g ai/ha): 75
- Plant response rating: Surinam Grass ([9]; 125 g ai/ha): 98
- Plant response rating: Surinam Grass ([9]; 250 g ai/ha): 100
